# Reference: patent US20070128217A1 (priority 2003, published 2007)
# What was measured:
# [1] = system: recombinant human anti-SARS-CoV antibody 03-018; assay type: binding; design: Binding of antibody 03-018 to linear peptides of the N protein of SARS-CoV Urbani / Binding of antibody 03-018 to looped/cyclic peptides of the N protein of SARS-CoV Urbani: unit not given here
# [2] = system: rabbit serum obtained by immunizing a rabbit with the SARS-CoV strain Frankfurt 1; assay type: binding; design: Binding of a rabbit serum to linear peptides / Binding of a rabbit serum to looped peptides / Rabbit serum linear peptides / Rabbit serum looped peptides / Binding of a rabbit serum to linear peptides of protein N of SARS-CoV Urbani (Rabbit serum linear peptides) / Binding of a rabbit serum to looped/cyclic peptides of protein N of SARS-CoV Urbani (Rabbit serum looped peptides): unit not given here
# [3] = system: control sera (pooled serum of ten healthy LUMC hospital workers; commercial negative donor pooled serum from the Dutch bloodbank); assay type: binding, human; design: Binding of Control serum LUMC to linear peptides / Binding of Control serum Blood-bank to linear peptides / Binding of Control serum LUMC to looped peptides / Binding of Control Serum Blood-Bank to Looped peptides / Binding of Control serum LUMC to linear peptides of the protein M of SARS-CoV Urbani / Binding of Control serum Blood-bank to linear peptides of the protein M of SARS-CoV Urbani / Binding of Control serum LUMC to looped peptides of the protein M of SARS-CoV Urbani / Binding of Control Serum Blood-Bank to Looped peptides of the protein M of SARS-CoV Urbani: unit not given here
# [4] = system: antibodies in sera from SARS patients (sera 1a, 1b, 2, 6, 37, 62, London, SARS-yellow, SARS-green); assay type: binding, human; design: Binding of serum 6 to linear peptides of protein X1 of SARS-CoV Urbani / Binding of serum 37 to linear peptides of protein X1 of SARS-CoV Urbani / Binding of serum 6 to looped/cyclic peptide (PEPSCAN-ELISA) / Binding of serum 37 to looped/cyclic peptide (PEPSCAN-ELISA) / Binding of serum 37 to looped/cyclic peptides of protein X1 of SARS-CoV Urbani / Binding of serum 6 to linear peptides of protein X2 / Binding of serum 37 to linear peptides of protein X2 / Binding of serum 37 to looped/cyclic peptides of protein X2 of SARS-CoV Urbani / Binding of serum 6 to linear peptides of protein M of SARS-CoV Urbani / Binding of serum 37 to linear peptides of protein M of SARS-CoV Urbani / Binding of serum 6 to looped/cyclic peptides of protein M of SARS-CoV Urbani / Binding of serum 37 to looped/cyclic peptides of protein M of SARS-CoV Urbani / Binding of serum 6 to linear peptides of protein X3 of SARS-CoV Urbani / Binding of serum 37 to linear peptides of protein X3 of SARS-CoV Urbani / Binding of serum 37 to looped/cyclic peptides of protein X3 of SARS-CoV Urbani / Binding of serum 6 to linear peptides of protein X4 of SARS-CoV Urbani / Binding of serum 37 to linear peptides of protein X4 of SARS-CoV Urbani / Binding of serum 37 to looped/cyclic peptides of protein X4 of SARS-CoV Urbani / Binding of serum 6 to linear peptides of protein X5 of SARS-CoV Urbani / Binding of serum 37 to linear peptides of protein X5 of SARS-CoV Urbani / Binding of serum 37 to looped/cyclic peptides of protein X5 of SARS-CoV Urbani / Binding of serum 6 to linear peptides of protein N of SARS-CoV Urbani / Binding of serum 37 to linear peptides of protein N of SARS-CoV Urbani / Binding of serum 6 to linear peptide (PEPSCAN-ELISA) / Binding of serum 1a to looped/cyclic peptides of protein N of SARS-CoV Urbani / Binding of serum 1b to looped/cyclic peptides of protein N of SARS-CoV Urbani / Binding of serum 2 to looped/cyclic peptides of protein N of SARS-CoV Urbani / Binding of serum 6 to looped/cyclic peptides of protein N of SARS-CoV Urbani / Binding of serum 37 to looped/cyclic peptides of protein N of SARS-CoV Urbani / Binding of serum 62 to looped/cyclic peptides of protein N of SARS-CoV Urbani / Binding of serum London to looped/cyclic peptides of protein N of SARS-CoV Urbani / Binding of serum SARS-green to looped/cyclic peptides of protein N of SARS-CoV Urbani: unit not given here
Sequence,Binding of antibody 03-018 to linear peptides of the N protein of SARS-CoV Urbani [1],Binding of antibody 03-018 to looped/cyclic peptides of the N protein of SARS-CoV Urbani [1],Binding of a rabbit serum to linear peptides of protein N of SARS-CoV Urbani (Rabbit serum linear peptides) [2],Binding of a rabbit serum to looped/cyclic peptides of protein N of SARS-CoV Urbani (Rabbit serum looped peptides) [2],Binding of serum 1a to looped/cyclic peptides of protein N of SARS-CoV Urbani [4],Binding of serum 1b to looped/cyclic peptides of protein N of SARS-CoV Urbani [4],Binding of serum 2 to looped/cyclic peptides of protein N of SARS-CoV Urbani [4],Binding of serum 6 to looped/cyclic peptides of protein N of SARS-CoV Urbani [4],Binding of serum 37 to looped/cyclic peptides of protein N of SARS-CoV Urbani [4],Binding of serum 62 to looped/cyclic peptides of protein N of SARS-CoV Urbani [4],Binding of serum London to looped/cyclic peptides of protein N of SARS-CoV Urbani [4],Binding of serum SARS-green to looped/cyclic peptides of protein N of SARS-CoV Urbani [4],Binding of serum SARS-yellow to looped/cyclic peptides of protein N of SARS-CoV Urbani [4],Binding of Control Serum Blood-Bank to Looped peptides [3],Binding of Control serum Blood-bank to linear peptides [3],Binding of Control serum LUMC to linear peptides [3],Binding of Control serum LUMC to looped peptides [3],Binding of serum 1a to linear peptide (PEPSCAN-ELISA) [4],Binding of serum 1b to linear peptide (PEPSCAN-ELISA) [4],Binding of serum 2 to linear peptide (PEPSCAN-ELISA) [4],other results
KTDEAQPLPQRQKKQ,0.1,0.2,0.0,0.0,0.3,0.1,0.3,0.6,0.3,0.1,0.7,0.2,0.5,,,,,,,,Control Serum Blood-Bank Looped peptides [3]: 0.4; Control serum Blood-bank linear peptides [3]: 0.7; Control serum LUMC linear peptides [3]: 0.9; Control serum LUMC looped peptides [3]: 0.4; Binding of serum 1a to linear peptides of protein N of SARS-CoV Urbani [4]: 0.3; Binding of serum 1b to linear peptides of protein N of SARS-CoV Urbani [4]: 0.2; Binding of serum 2 to linear peptides of protein N of SARS-CoV Urbani [4]: 0.3; Binding of serum 6 to linear peptides of protein N of SARS-CoV Urbani [4]: 0.3; Binding of serum 37 to linear peptides of protein N of SARS-CoV Urbani [4]: 0.9; Binding of serum 62 to linear peptides of protein N of SARS-CoV Urbani [4]: 0.9; Binding of serum London to linear peptides of protein N of SARS-CoV Urbani [4]: 1.4; Binding of serum SARS-green to linear peptides of protein N of SARS-CoV Urbani [4]: 0.6; Binding of serum SARS-yellow to linear peptides of protein N of SARS-CoV Urbani [4]: 1.5
KVSGKGQQQQGQTVT,0.1,0.2,0.2,0.4,0.3,0.2,0.5,0.3,0.4,0.4,0.6,0.5,0.3,0.6,0.8,0.7,0.5,0.3,0.1,0.3,Binding of serum 6 to linear peptide (PEPSCAN-ELISA) [4]: 0.2; Binding of serum 37 to linear peptide (PEPSCAN-ELISA) [4]: 0.6; Binding of serum 62 to linear peptide (PEPSCAN-ELISA) [4]: 0.6; Binding of serum London to linear peptide (PEPSCAN-ELISA) [4]: 0.5; Binding of serum SARS-green to linear peptide (PEPSCAN-ELISA) [4]: 0.6; Binding of serum SARS-yellow to linear peptide (PEPSCAN-ELISA) [4]: 0.6
LALLLLDRLNQLESK,0.1,0.2,0.1,0.6,0.3,0.2,0.4,0.2,0.5,0.5,0.4,0.6,0.4,0.7,0.7,0.6,0.6,0.2,0.1,0.1,Binding of serum 6 to linear peptide (PEPSCAN-ELISA) [4]: 0.1; Binding of serum 37 to linear peptide (PEPSCAN-ELISA) [4]: 0.5; Binding of serum 62 to linear peptide (PEPSCAN-ELISA) [4]: 0.5; Binding of serum London to linear peptide (PEPSCAN-ELISA) [4]: 0.7; Binding of serum SARS-green to linear peptide (PEPSCAN-ELISA) [4]: 0.4; Binding of serum SARS-yellow to linear peptide (PEPSCAN-ELISA) [4]: 0.5
LESKVSGKGQQQQGQ,0.1,0.3,0.1,0.6,0.4,0.3,0.7,0.5,0.7,0.6,1.8,0.4,0.7,0.8,0.8,0.7,0.7,0.3,0.1,0.2,Binding of serum 6 to linear peptide (PEPSCAN-ELISA) [4]: 0.1; Binding of serum 37 to linear peptide (PEPSCAN-ELISA) [4]: 0.6; Binding of serum 62 to linear peptide (PEPSCAN-ELISA) [4]: 0.6; Binding of serum London to linear peptide (PEPSCAN-ELISA) [4]: 0.5; Binding of serum SARS-green to linear peptide (PEPSCAN-ELISA) [4]: 0.4; Binding of serum SARS-yellow to linear peptide (PEPSCAN-ELISA) [4]: 0.7
